Data taken from PMC8177097 (FEBS letters, 2020).

Experiments:
[1] = molecular target: T1, lipocalin Blc (wtBlc) (Escherichia coli, UniProt P0A901); test: tryptophan fluorescence quenching titration; assay type: binding
T1 sequence (P0A901 19-177): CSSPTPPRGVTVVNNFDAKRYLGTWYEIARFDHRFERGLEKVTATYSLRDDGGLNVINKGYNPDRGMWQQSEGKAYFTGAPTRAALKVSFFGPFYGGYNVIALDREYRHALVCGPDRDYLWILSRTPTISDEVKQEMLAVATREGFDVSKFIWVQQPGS

[2] = molecular target: T1, lipocalin Blc (wtBlc); test: spectrophotometric hemin titration; assay type: binding

SMILES	Kd [1] [µM]	Kd [2] [µM]
CC1=C(CCC(=O)O)c2cc3[nH]c(cc4nc(cc5[nH]c(cc1n2)c(C)c5C(C)O)C(C)=C4C(C)O)c(C)c3CCC(=O)O (centres unmarked) [HP, hematoporphyrin]	0.00014 ± 0.0001	–
C=CC1=C(C)C2=Cc3c(C=C)c(C)c4[n]3[Fe][n]3c(c(C)c(CCC(=O)O)c3=CC3=NC(=C4)C(C)=C3CCC(=O)O)=CC1=N2 [heme]	–	1.4 ± 0.3
